Reference: patent EP4741380A1, “ISOXAZOLINE COMPOUND AND USE” (priority 2024, dated 2025)
Where two headings read alike, the source gives them in different places.

Tests used:
[1] = tested on: Borer; assay: Killing efficacy test against agricultural pests: borer test (leaf dip); format: in vivo; conditions: after 72 h
Description: (§1) Solution preparation: 2 mg of a test compound was weighed and dissolved in 200 µL of acetone, and the sample was diluted with an aqueous solution containing 0.1% Tween 80 to a required concentration to obtain a test solution. 1. Diamondback moth test: The test sample was prepared into solutions with final concentrations of 0.0156 mg/L, 0.125 mg/L, and 1 mg/L. Fresh and clean rapeseed leaves were cut into small pieces of 3 cm × 3 cm. The leaf pieces were immersed in the solutions with different concentrations for 10s, taken out, and air-dried naturally. The treated leaf pieces were placed into Petri dishes lined with moistened filter paper. 20 third-instar larvae of the diamondback moth were introduced into each Petri dish. The Petri dishes were placed in a constant-temperature room, and mortality rates were checked after 72 h. 2. Aphid test: The test sample was prepared into solutions with final concentrations of 2 mg/L, 10 mg/L, and 50 mg/L. Fresh cotton leaves of uniform size were immersed in the solutions with different concentrations for 10s, air-dried, and placed backside up on culture plates. 100 wingless adult aphids were introduced into each culture plate. The culture plates were sealed with paper strips and placed in a constant-temperature room. Mortality rates were checked after 72 h. 3. Mite test: The test sample was prepared into solutions with final concentrations of 0.02 mg/L, 0.2 mg/L, and 2 mg/L. Filter paper treated with the test solutions was placed in Petri dishes, and about 30 mites were placed at the center of each Petri dish. 0.05 g of mite feed was added to the center of each Petri dish after 30 min. The Petri dishes were placed in a constant-temperature room, and mortality rates were checked after 72 h. 4. Borer test: The test sample was prepared into solutions with final concentrations of 0.125 mg/L, 0.5 mg/L, and 2 mg/L. Fresh leaves were cut, immersed in the solutions with different concentrations for 10s, taken out, and air-dried. The treated leaves were placed in Petri dishes, and 30 borer larvae were introduced into each Petri dish. The Petri dishes were placed in a constant-temperature room, and mortality rates were checked after 72 h.

[2] = tested on: Diamondback moth; assay: Killing efficacy test against agricultural pests: diamondback moth test (leaf dip); format: in vivo; conditions: Plutella xylostella, foliar, read-out: Corrected Mortality Rate (%)
Description: as §1

[3] = tested on: Mite; assay: Killing efficacy test against agricultural pests: mite test (treated filter paper); format: in vivo, mites; conditions: after 72 h
Description: as §1

[4] = tested on: mites; assay: Mite killing efficacy test with an in vitro model
Description: Mite collection: Live mites were gently picked up from a cage box with cotton swabs or small tweezers, 17-26 live mites per group.
Drug treatment and detection method: 100 µL of a drug solution with a different concentration (drug solution prepared by 3% DMSO solution + 97% water and having a target final concentration of 30 µM) was aspirated with a pipette and added to a 24-well plate for each group, ensuring full contact between the drug and the mites. The mites were separately incubated at normal temperature for 5 min, transferred from each plate to another dry 24-well plate with the top sealed, and air-dried for about 1 h. Mite actions were observed, and the number of dead mites/the total number of mites was recorded. Then, the 24-well plate containing the mites was cultured at room temperature and relatively high humidity. The number of dead mites/the total number of mites was counted separately after 1 h, 2 h, 4 h, 6 h, 8 h, 22 h, and 24 h (time points after drug addition), and mite mortality rates were calculated. The project ended 24 h after drug addition.
At a corresponding time point, a mite mortality rate greater than or equal to 90% is denoted as "+++", a mite mortality rate less than 90% and greater than or equal to 50% is denoted as "++", and a mite mortality rate less than 50% is denoted as "+".

[5] = tested on: Aphid; assay: Killing efficacy test against agricultural pests: aphid test (leaf dip); format: in vivo, aphids; conditions: after 72 h
Description: as §1

[6] = In vivo pharmacokinetic evaluation in mice; set-up: species or system ICR mice; conditions: for AUC: read-out: AUC^1-24 h; for Vd: in vivo, read-out: Vss
Description: 1. Drug preparation: 5% DMSO + 10% macrogol 15 hydroxystearate (BASF) + 85% saline (where drug solutions have a final concentration of 1.2 mg/mL for the IV group and 3 mg/mL for the PO group). 2. Experimental animals: Each group included three mice (ICR mice, SPF grade). 3. Administration method: The body weight was measured before administration, and the dose was calculated according to the body weight. The mice were administered through intravenous injection or oral gavage. 4. Blood collection: After administration, blood samples were collected in 0.083 h, 0.25 h, 0.5 h, 1 h, 2 h, 4 h, 6 h, 8 h, and 24 h. The blood samples were collected via the cheek. Each sample included about 0.05 mL of blood anticoagulated with EDTA-2K. The blood samples were placed on wet ice after collection. 5. Sample treatment: The blood samples were placed on ice after collection and centrifuged within 1 h to obtain plasma (centrifugation conditions: 6000 g, 3 min, 2-8°C). Plasma samples were stored in a -80°C refrigerator before analysis. 6. Data processing: Pharmacokinetic parameters were calculated using Phoenix WinNonlin 8.2.0 based on plasma concentration data at different time points.

[7] = DiamondBack Moth, 0.0156 mg/L, after 72 h
[8] = DiamondBack Moth, 0.125 mg/L, after 72 h
[9] = DiamondBack Moth, 1 mg/L, after 72 h
[10] = 30 µM drug solution, 4 h after drug addition, read-out: Mite Mortality Rate 4 h
[11] = 30 µM drug solution, 24 h after drug addition, read-out: Mite Mortality Rate 24 h
[12] = ICR, mouse, IV (6 mg/kg), plasma
[13] = ICR, mouse, IV (6 mg/kg), plasma, read-out: C0
[14] = ICR, mouse, PO (30 mg/kg), plasma
[15] = ICR, mouse, PO (30 mg/kg), plasma, read-out: Cmax
[16] = ICR, mouse, PO (30 mg/kg), plasma, read-out: Tmax
[17] = ICR, mouse, plasma, PO (30 mg/kg) vs IV (6 mg/kg)
[18] = 4 h, read-out: Mite Mortality Rate 4 h
[19] = 24 h, read-out: Mite Mortality Rate 24 h

Compound	Corrected Mortality Rate (%) ([1]; 0.125 mg/L)	Corrected Mortality Rate (%) ([1]; 0.5 mg/L)	Corrected Mortality Rate (%) ([1]; 2 mg/L)	mortality at 0.0156 µg/mL [2, 7] [%]	mortality at 0.125 µg/mL [2, 8] [%]	mortality at 1 µg/mL [2, 9] [%]	Corrected Mortality Rate (%) ([3]; 0.02 mg/L)	Corrected Mortality Rate (%) ([3]; 0.2 mg/L)	Corrected Mortality Rate (%) ([3]; 2 mg/L)	mortality at 30 µM [4, 10] [%]	mortality at 30 µM [4, 11] [%]	Corrected Mortality Rate (%) ([5]; 2 mg/L)	Corrected Mortality Rate (%) ([5]; 10 mg/L)	Corrected Mortality Rate (%) ([5]; 50 mg/L)	clearance [6, 12] [mL/min/kg]	half-life [6, 12] [h]	AUC [6, 12] [ng·h/mL]	C0 [6, 13] [ng/mL]	half-life [6, 14] [h]	AUC [6, 14] [ng·h/mL]	further results
Cc1cc(C2=NOC(c3cc(Cl)c(Cl)c(C(F)(F)F)c3)(C(F)(F)F)C2)ccc1C(=O)NCC(=O)NC1(C(F)(F)F)CC1 (stereo not shown) [Example 029, 4-(5-(3,4-dichloro-5-(trifluoromethyl)phenyl)-5-(trifluoromethyl)-4,5-dihydroisoxazol-3-yl)-2-m ethyl-N-(2-oxo-2-((1-(trifluoromethyl)cyclopropyl)amino)ethyl)benzamide]	0	50	100	0	79	100	54	70	100	> 90	> 90	5	100	100							
Cc1cc(C2=NO[C@@](c3cc(Cl)cc(C(F)(F)F)c3)(C(F)(F)F)C2)ccc1C(=O)NCC(=O)NC1(C(F)(F)F)CC1 [Example 008, (S)-4-(5-(3-chloro-5-(trifluoromethyl)phenyl)-5-(trifluoromethyl)-4,5-dihydroisoxazol-3-yl)-2-m ethyl-N-(2-oxo-2-((1-(trifluoromethyl)cyclopropyl)amino)ethyl)benzamide]	2	82	100				62	92	100			86	100	100	0.713	37.6	56100	10300	31.6	233000	Cmax [6, 15]: 15300 ng/mL; Tmax [6, 16]: 9.33 h; Vd [6, 12]: 1.93 L/kg; bioavailability [6, 17]: 83.1%; mortality at 0.0156 µg/mL ([2]; 72 h): 5%; mortality at 0.125 µg/mL ([2]; 72 h): 100%; mortality at 1 µg/mL ([2]; 72 h): 100%; mortality at 30 µM [4, 18]: > 90%; mortality at 30 µM [4, 19]: > 90%
Cc1cc(C2=NOC(c3cc(C(F)(F)F)cc(C(F)(F)F)c3)(C(F)(F)F)C2)ccc1C(=O)NCC(=O)NC1(C(F)(F)F)CC1 (stereo not shown) [Example 030, 4-(5-(3,5-bis(trifluoromethyl)phenyl)-5-(trifluoromethyl)-4,5-dihydroisoxazol-3-yl)-2-methyl-N-(2-oxo-2-((1-(trifluoromethyl)cyclopropyl)amino)ethyl)benzamide]	30	100	100	16	63	100	34	66	96	> 90	> 90	22	86	100							
Cc1cc(C2=NOC(c3cc(Cl)cc(Cl)c3)(C(F)(F)F)C2)ccc1C(=O)NCC(=O)NC1CC1 (stereo not shown) [Example 39 (Comparative Example 1), N-(2-(cyclopropylamino)-2-oxoethyl)-4-(5-(3,5-dichlorophenyl)-5-(trifluoromethyl)-4,5-dihydroisoxazol-3-yl)-2-methylbenzamide, reference compound]															2.06	12.3	37100	7800	11.8	173000	Cmax [6, 15]: 12300 ng/mL; Tmax [6, 16]: 3.33 h; Vd [6, 12]: 1.97 L/kg; bioavailability [6, 17]: 93.1%; mortality at 30 µM [4, 18]: > 90%; mortality at 30 µM [4, 19]: > 90%
Cc1cc(C2=NOC(c3cc(Cl)cc(Cl)c3)(C(F)(F)F)C2)ccc1C(=O)NCC(=O)NCC(F)(F)F (stereo not shown) [Fluralaner, fluralaner, reference compound]																					AUC^1-24 h ([6]; IV (6 mg/kg), plasma): 22972 ng·h/mL; C0 ([6]; IV (6 mg/kg), plasma): 7151 ng/mL; CL ([6]; IV (6 mg/kg), plasma): 3.49 mL/min/kg; T1/2 ([6]; IV (6 mg/kg), plasma): 11.9 h; Vss ([6]; IV (6 mg/kg), plasma): 2.87 L/kg; F (%) ([6]; PO (30 mg/kg) vs IV (6 mg/kg)): 81.42%; AUC^1-24 h ([6]; PO (30 mg/kg), plasma): 93520 ng·h/mL; Cmax ([6]; PO (30 mg/kg), plasma): 8000 ng/mL; T1/2 ([6]; PO (30 mg/kg), plasma): 15.2 h; Tmax ([6]; PO (30 mg/kg), plasma): 1.67 h; Mite Mortality Rate 4 h ([4]; 30 µM drug solution, 4 h after drug addition): +++ (a mite mortality rate greater than or equal to 90% is denoted as "+++"); Mite Mortality Rate 24 h ([4]; 30 µM drug solution, 24 h after drug addition): +++ (a mite mortality rate greater than or equal to 90% is denoted as "+++")
